The values that follow come from patent US10196386B2, “Compounds having muscarinic receptor antagonist and beta2 adrenergic receptor agonist activity” (priority 2016, dated 2019).

One test concerns the target T1, Human M3 receptor (Homo sapiens, UniProt P20309).
T1 construct: purchased Perkin Elmer
As to the kind of experiment: biochemical. The test is classed as binding. Conditions: read-out: M3 Range.

Another test deals with T2, Human β2 adrenoceptor (Homo sapiens, UniProt P07550).
T2 construct: purchased Perkin Elmer
As to the kind of experiment: β2 adrenoceptor radioligand binding assay. The method in brief: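 Human β2 receptor membranes incubated 1 h at room temperature with 0.3 nM [125I]cyanopindolol and compound in pH 7.4 HEPES buffer (0.5% DMSO); 2 μM s-propranolol defined non-specific binding. Bound label counted after filtration; IC50 from competition curves, converted to Ki via Cheng–Prusoff.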

T2 sequence (P07550 whole entry): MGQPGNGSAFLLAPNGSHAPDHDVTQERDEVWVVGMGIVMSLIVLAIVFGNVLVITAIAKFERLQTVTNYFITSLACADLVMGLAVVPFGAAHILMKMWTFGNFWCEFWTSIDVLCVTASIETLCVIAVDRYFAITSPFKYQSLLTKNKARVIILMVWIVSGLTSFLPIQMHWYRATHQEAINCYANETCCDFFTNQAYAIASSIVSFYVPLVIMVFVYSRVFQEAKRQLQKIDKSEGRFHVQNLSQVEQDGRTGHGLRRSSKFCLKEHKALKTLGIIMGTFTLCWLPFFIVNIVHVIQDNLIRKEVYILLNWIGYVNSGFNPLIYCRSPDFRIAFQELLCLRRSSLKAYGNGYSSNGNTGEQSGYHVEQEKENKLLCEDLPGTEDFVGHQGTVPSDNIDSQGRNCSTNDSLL
T1 sequence (P20309 whole entry): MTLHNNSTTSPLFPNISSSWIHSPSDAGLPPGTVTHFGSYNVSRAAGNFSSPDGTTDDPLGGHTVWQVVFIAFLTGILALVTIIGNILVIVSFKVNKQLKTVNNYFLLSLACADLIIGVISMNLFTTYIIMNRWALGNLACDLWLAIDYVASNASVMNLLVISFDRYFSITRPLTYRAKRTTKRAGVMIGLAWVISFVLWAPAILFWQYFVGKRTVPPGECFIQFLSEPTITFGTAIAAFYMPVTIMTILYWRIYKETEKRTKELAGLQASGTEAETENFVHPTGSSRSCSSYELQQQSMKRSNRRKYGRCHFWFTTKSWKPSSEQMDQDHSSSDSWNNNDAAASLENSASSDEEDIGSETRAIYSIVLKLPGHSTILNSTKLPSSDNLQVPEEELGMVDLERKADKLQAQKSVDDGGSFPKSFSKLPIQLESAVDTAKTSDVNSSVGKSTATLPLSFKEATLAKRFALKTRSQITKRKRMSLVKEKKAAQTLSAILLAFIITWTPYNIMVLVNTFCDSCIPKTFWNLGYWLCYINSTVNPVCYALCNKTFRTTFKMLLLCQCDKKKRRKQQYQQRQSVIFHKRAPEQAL

Turning to `COc1cc(C(=O)NCc2ccc(-c3cccc([C@](O)(C(=O)OCC4CCN(Cc5ccccc5)CC4)c4ccccc4)c3)nn2)ccc1CNC[C@H](O)c1ccc(O)c2[nH]c(=O)ccc12` [Compound 4C, (1-Benzylpiperidin-4-yl)methyl (S)-2-hydroxy-2-(3-(6-((4-((((R)-2-hydroxy-2-(8-hydroxy-2-oxo-1,2-dihydroquinolin-5-yl)ethyl)amino)methyl)-3-methoxybenzamido)methyl)pyridazin-3-yl)phenyl)-2-phenylacetate], the IC50 on Human M3 receptor and at Human β2 adrenoceptor was below 0.3 nM throughout.

As for `O=C(NCc1ccnc(-c2cccc([C@](O)(C(=O)OCC3CCN(Cc4ccccc4)CC3)c3ccccc3)c2)n1)c1ccc(CNC[C@H](O)c2ccc(O)c3[nH]c(=O)ccc23)cc1` [Compound 4D, (1-Benzylpiperidin-4-yl)methyl (S)-2-hydroxy-2-(3-(4-((4-((((R)-2-hydroxy-2-(8-hydroxy-2-oxo-1,2-dihydroquinolin-5-yl)ethyl)amino)methyl)-benzamido)methyl)pyrimidin-2-yl)phenyl)-2-phenylacetate], the IC50 on Human M3 receptor and on Human β2 adrenoceptor was 0.3 to 3 nM in each case.

With `COc1cc(C(=O)NCc2ncc(-c3cccc([C@](O)(C(=O)OCC4CCN(Cc5ccccc5)CC4)c4ccccc4)c3)cn2)ccc1CNC[C@H](O)c1ccc(O)c2[nH]c(=O)ccc12` [Compound 4E, (1-Benzylpiperidin-4-yl)methyl (S)-2-hydroxy-2-(3-(2-((4-((((R)-2-hydroxy-2-(8-hydroxy-2-oxo-1,2-dihydroquinolin-5-yl)ethyl)amino)methyl)-3-methoxybenzamido)methyl)pyrimidin-5-yl)phenyl)-2-phenylacetate], the IC50 on Human M3 receptor and at Human β2 adrenoceptor was 0.3 to 3 nM in each case.

As for `COc1cc(C(=O)NCc2nn(C)cc2-c2cccc([C@](O)(C(=O)OCC3CCN(Cc4ccccc4)CC3)c3ccccc3)c2)ccc1CNC[C@H](O)c1ccc(O)c2[nH]c(=O)ccc12` [Compound 4F, (1-Benzylpiperidin-4-yl)methyl (S)-2-hydroxy-2-(3-(3-((4-((((R)-2-hydroxy-2-(8-hydroxy-2-oxo-1,2-dihydroquinolin-5-yl)ethyl)amino)methyl)-3-methoxybenzamido)methyl)-1-methyl-1H-pyrazol-4-yl)phenyl)-2-phenylacetate], the IC50 at Human M3 receptor and on Human β2 adrenoceptor was 0.3 to 3 nM in each case.

For the compound `COc1cc(C(=O)NCc2cncc(-c3cccc([C@](O)(C(=O)OCC4CCN(Cc5ccccc5)CC4)c4ccccc4)c3)n2)ccc1CNC[C@H](O)c1ccc(O)c2[nH]c(=O)ccc12` [Compound 4G, (1-Benzylpiperidin-4-yl)methyl (S)-2-hydroxy-2-(3-(6-((4-((((R)-2-hydroxy-2-(8-hydroxy-2-oxo-1,2-dihydroquinolin-5-yl)ethyl)amino)methyl)-3-methoxybenzamido)methyl)pyrazin-2-yl)phenyl)-2-phenylacetate], the IC50 was 0.3 to 3 nM at Human M3 receptor and below 0.3 nM at Human β2 adrenoceptor.

As for `COc1cc(C(=O)NCc2cnc(-c3cccc([C@](O)(C(=O)OCC4CCN(Cc5ccccc5)CC4)c4ccccc4)c3)cn2)ccc1CNC[C@H](O)c1ccc(O)c2[nH]c(=O)ccc12` [Compound 4H, (1-Benzylpiperidin-4-yl)methyl (S)-2-hydroxy-2-(3-(5-((4-((((R)-2-hydroxy-2-(8-hydroxy-2-oxo-1,2-dihydroquinolin-5-yl)ethyl)amino)methyl)-3-methoxybenzamido)methyl)pyrazin-2-yl)phenyl)-2-phenylacetate], the IC50 was 0.3 to 3 nM on Human M3 receptor and below 0.3 nM on Human β2 adrenoceptor.

As to `O=C(NCc1cc(-c2cccc([C@](O)(C(=O)OCC3CCN(Cc4ccccc4)CC3)c3ccccc3)c2)cs1)c1ccc(CNC[C@H](O)c2ccc(O)c3[nH]c(=O)ccc23)cc1` [Compound 5, (1-Benzylpiperidin-4-yl)methyl (S)-2-hydroxy-2-(3-(5-((4-((((R)-2-hydroxy-2-(8-hydroxy-2-oxo-1,2-dihydroquinolin-5-yl)ethyl)amino)methyl)benzamido)methyl)-thiophen-3-yl)phenyl)-2-phenylacetate], the IC50 on Human M3 receptor is 0.3 to 3 nM; on Human β2 adrenoceptor it was below 0.3 nM.

On to `O=C(NCc1csc(-c2cccc([C@](O)(C(=O)OCC3CCN(Cc4ccccc4)CC3)c3ccccc3)c2)c1)c1ccc(CNC[C@H](O)c2ccc(O)c3[nH]c(=O)ccc23)cc1` [Compound 5A, (1-Benzylpiperidin-4-yl)methyl (S)-2-hydroxy-2-(3-(4-((4-((((R)-2-hydroxy-2-(8-hydroxy-2-oxo-1,2-dihydroquinolin-5-yl)ethyl)amino)methyl)-benzamido)methyl)thiophen-2-yl)phenyl)-2-phenylacetate], for which the IC50 on Human M3 receptor was 0.3 to 3 nM; on Human β2 adrenoceptor it was below 0.3 nM.

Regarding `O=C(NCc1cnc(-c2cccc([C@](O)(C(=O)OCC3CCN(Cc4ccccc4)CC3)c3ccccc3)c2)s1)c1ccc(CNC[C@H](O)c2ccc(O)c3[nH]c(=O)ccc23)cc1` [Compound 5B, (1-Benzylpiperidin-4-yl)methyl (S)-2-hydroxy-2-(3-(5-((4-((((R)-2-hydroxy-2-(8-hydroxy-2-oxo-1,2-dihydroquinolin-5-yl)ethyl)amino)methyl)-benzamido)methyl)thiazol-2-yl)phenyl)-2-phenylacetate], the IC50 is 0.3 to 3 nM at Human M3 receptor and below 0.3 nM on Human β2 adrenoceptor.

For `O=C(c1ccc(CNC[C@H](O)c2ccc(O)c3[nH]c(=O)ccc23)cc1)N1CCc2sc(-c3cccc([C@](O)(C(=O)OCC4CCN(Cc5ccccc5)CC4)c4ccccc4)c3)cc2C1` [Compound 5C, (1-Benzylpiperidin-4-yl)methyl (S)-2-hydroxy-2-(3-(5-(4-((((R)-2-hydroxy-2-(8-hydroxy-2-oxo-1,2-dihydroquinolin-5-yl)ethyl)amino)methyl)benzoyl)-4,5,6,7-tetrahydrothieno[3,2-c]pyridin-2-yl)phenyl)-2-phenylacetate], the IC50 on Human M3 receptor is 0.3 to 3 nM; at Human β2 adrenoceptor, below 0.3 nM.

For the compound `O=C(NCCc1ccc(-c2cccc([C@](O)(C(=O)OCC3CCN(Cc4ccccc4)CC3)c3ccccc3)c2)s1)c1ccc(CNC[C@H](O)c2ccc(O)c3[nH]c(=O)ccc23)cc1` [Compound 5D, (1-Benzylpiperidin-4-yl)methyl (S)-2-hydroxy-2-(3-(5-(2-(4-((((R)-2-hydroxy-2-(8-hydroxy-2-oxo-1,2-dihydroquinolin-5-yl)ethyl)amino)methyl)-benzamido)ethyl)thiophen-2-yl)phenyl)-2-phenylacetate], the IC50 on Human M3 receptor is 0.3 to 3 nM; at Human β2 adrenoceptor it was below 0.3 nM.

For `COc1cc(C(=O)NCc2nccnc2-c2cccc([C@](O)(C(=O)OCC3CCN(Cc4ccccc4)CC3)c3ccccc3)c2)ccc1CNC[C@H](O)c1ccc(O)c2[nH]c(=O)ccc12` [Compound 5E, (1-Benzylpiperidin-4-yl)methyl (S)-2-hydroxy-2-(3-(3-((4-((((R)-2-hydroxy-2-(8-hydroxy-2-oxo-1,2-dihydroquinolin-5-yl)ethyl)amino)methyl)-3-methoxybenzamido)methyl)pyrazin-2-yl)phenyl)-2-phenylacetate], the IC50 at Human M3 receptor is 0.3 to 3 nM; at Human β2 adrenoceptor, below 0.3 nM.
